Data reported in ChEMBL document CHEMBL1131281, “Cyclopentanedi- and tricarboxylic acids as squalene synthase inhibitors: syntheses and evaluation” (Bioorg Med Chem Lett, 1998).

What follows are molecules tested against T1, Squalene synthase (Rattus norvegicus, UniProt Q02769) (assay: Percent inhibition of squalene synthase from rat liver microsomes using [3H]farnesyl pyrophosphate (FPP) as substrate; NA indicates <20% inhibition at 1 uM concentration).
T1 sequence (Q02769 whole entry): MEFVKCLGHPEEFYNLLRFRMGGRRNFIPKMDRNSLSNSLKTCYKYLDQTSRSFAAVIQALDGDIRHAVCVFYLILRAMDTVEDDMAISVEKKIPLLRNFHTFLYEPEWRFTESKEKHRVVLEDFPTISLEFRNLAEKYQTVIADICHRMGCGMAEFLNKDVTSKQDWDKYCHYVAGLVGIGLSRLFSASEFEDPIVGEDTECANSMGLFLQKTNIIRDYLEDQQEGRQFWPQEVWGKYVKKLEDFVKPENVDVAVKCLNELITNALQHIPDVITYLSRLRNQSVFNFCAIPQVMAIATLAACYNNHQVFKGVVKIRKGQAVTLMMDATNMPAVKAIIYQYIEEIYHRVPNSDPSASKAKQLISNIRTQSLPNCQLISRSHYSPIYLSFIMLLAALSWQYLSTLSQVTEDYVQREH

IC50 | Structure (SMILES)
Not Active | CCCN(Cc1ccc(Oc2ccccc2)cc1)C(=O)[C@H]1C[C@@H](C(=O)N(CCC)Cc2ccc(Oc3ccccc3)cc2)[C@](CC(=O)O)(C(=O)O)C1
Not Active | CCCN(Cc1ccc(Oc2ccccc2)cc1)C(=O)[C@@H]1[C@H](C(=O)O)[C@@H](C(=O)N(CCC)Cc2ccc(Oc3ccccc3)cc2)O[C@H]1C(=O)O

These molecules were tested against T2, Squalene synthase (Rattus norvegicus) (UniProt Q02769) (assay: Percent inhibition of squalene synthase from rat liver microsomes using [3H]farnesyl pyrophosphate (FPP) as substrate at 1 uM concentration).
T2 sequence (whole entry): T1 sequence (Q02769 whole entry)

inhibition [%] | Structure (SMILES)
25 | CCCN(Cc1ccc(Oc2ccccc2)cc1)C(=O)[C@H]1C[C@@H](C(=O)N(CCC)Cc2ccc(Oc3ccccc3)cc2)[C@@](CC(=O)O)(C(=O)O)[C@H]1C(=O)O
24 | CCCN(Cc1ccc(Oc2ccccc2)cc1)C(=O)[C@@H]1[C@@H](C(=O)N(CCC)Cc2ccc(Oc3ccccc3)cc2)[C@@H](C(=O)O)C[C@@H]1C(=O)O
45 | CCCN(Cc1ccc(Oc2ccccc2)cc1)C(=O)[C@@H]1[C@@H](C(=O)N(CCC)Cc2ccc(Oc3ccccc3)cc2)[C@H](C(=O)O)C[C@@H]1C(=O)O
44 | CCCN(Cc1ccc(Oc2ccccc2)cc1)C(=O)[C@H]1C[C@@H](C(=O)N(CCC)Cc2ccc(Oc3ccccc3)cc2)[C@@](CC(=O)O)(C(=O)O)C1
38 | CCCN(Cc1ccc(Oc2ccccc2)cc1)C(=O)[C@H]1C[C@@H](C(=O)N(CCC)Cc2ccc(Oc3ccccc3)cc2)[C@@](CC(=O)O)(C(=O)O)[C@@H]1C(=O)O

What follows are molecules tested against T1, Squalene synthase (assay: Compound was tested for inhibition of squalene synthase from rat liver microsomes using [3H]farnesyl pyrophosphate (FPP) as substrate).

IC50 [nM] | Structure (SMILES)
580 | CCCN(Cc1ccc(Oc2ccccc2)cc1)C(=O)[C@H]1C[C@@H](C(=O)N(CCC)Cc2ccc(Oc3ccccc3)cc2)[C@H](C(=O)O)[C@H]1C(=O)O
240 | CCCN(Cc1ccc(Oc2ccccc2)cc1)C(=O)[C@H]1C[C@@H](C(=O)N(CCC)Cc2ccc(Oc3ccccc3)cc2)[C@](CC(=O)O)(C(=O)O)[C@H]1C(=O)O
2900 | CCCN(Cc1ccc(Oc2ccccc2)cc1)C(=O)[C@H]1[C@@H](C(=O)O)[C@@H](C(=O)N(CCC)Cc2ccc(Oc3ccccc3)cc2)C[C@H]1C(=O)O
3000 | CCCN(Cc1ccc(Oc2ccccc2)cc1)C(=O)[C@H]1[C@@H](C(=O)O)[C@H](C(=O)O)O[C@@H]1C(=O)N(CCC)Cc1ccc(Oc2ccccc2)cc1
170 | CCCN(Cc1ccc(Oc2ccccc2)cc1)C(=O)[C@H]1C[C@H](C(=O)N(CCC)Cc2ccc(Oc3ccccc3)cc2)[C@H](C(=O)O)[C@H]1C(=O)O
9100 | CCCN(Cc1ccc(Oc2ccccc2)cc1)C(=O)[C@@H]1[C@H](C(=O)N(CCC)Cc2ccc(Oc3ccccc3)cc2)[C@H](C(=O)O)C[C@@H]1C(=O)O
